Active and inactive are the calls of the source. No rule for the calls is given here.
Test system: CCRIS mutagenicity, Ames/micronucleus/aberration tests
Experiment: CCRIS mutagenicity studies
[1] = Test System: AMES SALMONELLA TYPHIMURIUM, Strain/Indicator: TA98, Metabolic Activation: NONE, Method: STANDARD PLATE
[2] = Test System: AMES SALMONELLA TYPHIMURIUM, Strain/Indicator: TA98, Metabolic Activation: RAT, LIVER, S-9, AROCLOR 1254, Method: STANDARD PLATE
[3] = Test System: AMES SALMONELLA TYPHIMURIUM, Strain/Indicator: TA100, Metabolic Activation: NONE, Method: STANDARD PLATE
[4] = Test System: AMES SALMONELLA TYPHIMURIUM, Strain/Indicator: TA100, Metabolic Activation: RAT, LIVER, S-9, AROCLOR 1254, Method: STANDARD PLATE
[5] = Test System: AMES SALMONELLA TYPHIMURIUM, Strain/Indicator: TA1535, Metabolic Activation: NONE, Method: STANDARD PLATE
[6] = Test System: AMES SALMONELLA TYPHIMURIUM, Strain/Indicator: TA1535, Metabolic Activation: RAT, LIVER, S-9, AROCLOR 1254, Method: STANDARD PLATE
[7] = Test System: AMES SALMONELLA TYPHIMURIUM, Strain/Indicator: TA1537, Metabolic Activation: NONE, Method: STANDARD PLATE
[8] = Test System: AMES SALMONELLA TYPHIMURIUM, Strain/Indicator: TA102, Metabolic Activation: NONE, Method: STANDARD PLATE
[9] = Test System: AMES SALMONELLA TYPHIMURIUM, Strain/Indicator: TA102, Metabolic Activation: RAT, LIVER, S-9, AROCLOR 1254, Method: STANDARD PLATE
[10] = Test System: AMES SALMONELLA TYPHIMURIUM, Strain/Indicator: TA104, Metabolic Activation: NONE, Method: STANDARD PLATE
[11] = Test System: AMES SALMONELLA TYPHIMURIUM, Strain/Indicator: TA104, Metabolic Activation: RAT, LIVER, S-9, AROCLOR 1254, Method: STANDARD PLATE

Measured: mutagenic call

C=CC(=O)OC(C)(C)C
inactive: [1] inactive; negative | [2] inactive; negative | Test System: AMES SALMONELLA TYPHIMURIUM, Strain/Indicator: TA98, Metabolic Activation: RAT, LIVER, S-9, SODIUM PHENOBARBITAL, Method: STANDARD PLATE inactive; negative | [3] inactive; negative | [4] inactive; negative | Test System: AMES SALMONELLA TYPHIMURIUM, Strain/Indicator: TA100, Metabolic Activation: RAT, LIVER, S-9, SODIUM PHENOBARBITAL, Method: STANDARD PLATE inactive; negative | [5] inactive; negative | [6] inactive; negative | Test System: AMES SALMONELLA TYPHIMURIUM, Strain/Indicator: TA1535, Metabolic Activation: RAT, LIVER, S-9, SODIUM PHENOBARBITAL, Method: STANDARD PLATE inactive; negative | [7] inactive; negative | Test System: AMES SALMONELLA TYPHIMURIUM, Strain/Indicator: TA1537, Metabolic Activation: RAT, LIVER, S-9, AROCLOR 1254, Method: STANDARD PLATE inactive; negative | Test System: AMES SALMONELLA TYPHIMURIUM, Strain/Indicator: TA1537, Metabolic Activation: RAT, LIVER, S-9, SODIUM PHENOBARBITAL, Method: STANDARD PLATE inactive; negative | Test System: AMES SALMONELLA TYPHIMURIUM, Strain/Indicator: TA1538, Metabolic Activation: NONE, Method: STANDARD PLATE inactive; negative | Test System: AMES SALMONELLA TYPHIMURIUM, Strain/Indicator: TA1538, Metabolic Activation: RAT, LIVER, S-9, AROCLOR 1254, Method: STANDARD PLATE inactive; negative | Test System: AMES SALMONELLA TYPHIMURIUM, Strain/Indicator: TA1538, Metabolic Activation: RAT, LIVER, S-9, SODIUM PHENOBARBITAL, Method: STANDARD PLATE inactive; negative

CC/C(=C(/CC)c1ccc(OP(=O)(O)O)cc1)c1ccc(OP(=O)(O)O)cc1
inactive: [1] inactive; negative | [3] inactive; negative | Test System: E. COLI, Strain/Indicator: WP2 (HCR), Metabolic Activation: NONE, Method: STANDARD PLATE inactive; negative

Cc1c(N=O)c(=O)n(-c2ccccc2)n1C
active: Test System: AMES SALMONELLA TYPHIMURIUM, Strain/Indicator: TA97, Metabolic Activation: NONE, Method: STANDARD PLATE active; positive | Test System: AMES SALMONELLA TYPHIMURIUM, Strain/Indicator: TA97, Metabolic Activation: RAT, LIVER, S-9, AROCLOR 1254, Method: STANDARD PLATE active; positive | [1] active; positive | [2] active; positive | [3] active; positive | [4] active; positive | [8] active; positive | [9] active; positive | [10] active; positive | [11] active; positive

O=C(O)C=C(C(Cl)Cl)C(Cl)Cl
inactive: Test System: AMES SALMONELLA TYPHIMURIUM, Strain/Indicator: TA98, Metabolic Activation: NONE, Method: PREINCUBATION inactive; negative | Test System: AMES SALMONELLA TYPHIMURIUM, Strain/Indicator: TA104, Metabolic Activation: NONE, Method: PREINCUBATION inactive; negative
active: Test System: AMES SALMONELLA TYPHIMURIUM, Strain/Indicator: TA100, Metabolic Activation: NONE, Method: PREINCUBATION active; positive

O=C([O-])[O-].[Mn+2]
inactive: Test System: AMES SALMONELLA TYPHIMURIUM, Strain/Indicator: TA97, Metabolic Activation: NONE, Method: PREINCUBATION inactive; negative | Test System: AMES SALMONELLA TYPHIMURIUM, Strain/Indicator: TA97, Metabolic Activation: S-9, Method: PREINCUBATION inactive; negative | Test System: AMES SALMONELLA TYPHIMURIUM, Strain/Indicator: TA102, Metabolic Activation: NONE, Method: PREINCUBATION inactive; negative | Test System: AMES SALMONELLA TYPHIMURIUM, Strain/Indicator: TA102, Metabolic Activation: S-9, Method: PREINCUBATION inactive; negative

CC(=O)ON(OCc1ccc(C)cc1)C(=O)c1ccccc1
active: [3] active; positive | Test System: AMES SALMONELLA TYPHIMURIUM, Strain/Indicator: TA100, Metabolic Activation: RAT, S-9, AROCLOR, Method: STANDARD PLATE active; positive

CC(C)(Oc1ccc(C(=O)c2ccc(Cl)cc2)cc1)C(=O)O
inactive: [1] inactive; negative | Test System: AMES SALMONELLA TYPHIMURIUM, Strain/Indicator: TA98, Metabolic Activation: RAT, LIVER, S-9, PHENOBARBITAL AND 5,6-BENZOFLAVONE, Method: STANDARD PLATE inactive; negative | [3] inactive; negative | Test System: AMES SALMONELLA TYPHIMURIUM, Strain/Indicator: TA100, Metabolic Activation: RAT, LIVER, S-9, PHENOBARBITAL AND 5,6-BENZOFLAVONE, Method: STANDARD PLATE inactive; negative | [5] inactive; negative | Test System: AMES SALMONELLA TYPHIMURIUM, Strain/Indicator: TA1535, Metabolic Activation: RAT, LIVER, S-9, PHENOBARBITAL AND 5,6-BENZOFLAVONE, Method: STANDARD PLATE inactive; negative | [7] inactive; negative | Test System: AMES SALMONELLA TYPHIMURIUM, Strain/Indicator: TA1537, Metabolic Activation: RAT, LIVER, S-9, PHENOBARBITAL AND 5,6-BENZOFLAVONE, Method: STANDARD PLATE inactive; negative | Test System: E. COLI, Strain/Indicator: WP2 UVRA, Metabolic Activation: NONE, Method: STANDARD PLATE inactive; negative | Test System: E. COLI, Strain/Indicator: WP2 UVRA, Metabolic Activation: RAT, LIVER, S-9, PHENOBARBITAL AND 5,6-BENZOFLAVONE, Method: STANDARD PLATE inactive; negative

O=[N+]([O-])c1c2ccccc2cc2c1ccc1ccccc12
inactive: [1] inactive; negative | [3] inactive; negative

O=Nc1ccc2ccc3cccc4ccc1c2c34
active: Test System: AMES SALMONELLA TYPHIMURIUM, Strain/Indicator: TA98 (1,8-DNP6), Metabolic Activation: NONE, Method: STANDARD PLATE active; positive | Test System: AMES SALMONELLA TYPHIMURIUM, Strain/Indicator: TA98(1,8-DNP6), Metabolic Activation: NONE, Method: STANDARD PLATE active; positive | Test System: AMES SALMONELLA TYPHIMURIUM, Strain/Indicator: TA98 (NR), Metabolic Activation: NONE, Method: STANDARD PLATE active; positive | Test System: AMES SALMONELLA TYPHIMURIUM, Strain/Indicator: TA98(NR), Metabolic Activation: NONE, Method: STANDARD PLATE active; positive | [1] active; positive | Test System: CHINESE HAMSTER OVARY, Strain/Indicator: CHO (HGPRT), Metabolic Activation: NONE, Method: SUSPENSION active; positive | Test System: CHINESE HAMSTER OVARY, Strain/Indicator: CHO-K1-BH4 (HGPRT), Metabolic Activation: NONE, Method: SUSPENSION active; positive | Test System: CHINESE HAMSTER OVARY, Strain/Indicator: CHO/HGPRT, Metabolic Activation: NONE active; positive

C[C@]12CC[C@H](OC(=O)Cc3ccc(N(CCCl)CCCl)cc3)C[C@@H]1CC[C@@H]1[C@@H]2CC[C@]2(C)NC(=O)CC[C@@H]12
inactive: [1] inactive; negative | [2] inactive; negative | [10] inactive; negative | [11] inactive; negative
active: [3] active; positive | [4] active; positive | [8] active; positive | [9] active; positive | [5] active; positive | [6] active; positive

Source: PubChem BioAssay AID1259407 (Chemical Carcinogenesis Research Information System (CCRIS), 2018)
